Source: US10231969B2, “Anti-neoplastic combinations and dosing regimens using CDK4/6 inhibitor compounds to treat RB-positive tumors” (G1 Therapeutics, Inc., priority 2014, dated 2019)
Read-outs that look alike come from different tables or passages of the source.

Legend:
CDK2/CyclinA = target: T1, CDK2/CyclinA (Homo sapiens, UniProt P24941); assay: CDK2/CycA kinase assay (Nanosyn, Caliper microfluidic); type: biochemical; details: Table 2; for IC50: ATP 50 μM
T1 construct: Nanosyn (Santa Clara, Calif.) ran the assay as a service
Method: (§1) Selected compounds disclosed herein were tested in CDK4/cyclinD1, CDK2/CycA and CDK2/cyclinE kinase assays by Nanosyn (Santa Clara, Calif.) to determine their inhibitory effect on these CDKs. The assays were performed using microfluidic kinase detection technology (Caliper Assay Platform). The compounds were tested in 12-point dose-response format in singlicate at Km for ATP. Phosphoacceptor substrate peptide concentration used was 1 μM for all assays and Staurosporine was used as the reference compound for all assays. Specifics of each assay are as described below:
CDK2/CyclinA: Enzyme concentration: 0.2 nM; ATP concentration: 50 μM; Incubation time: 3 hr.

[1] = test system: HS68 cells (human skin fibroblast cell line (Rb-positive)); assay: G1 arrest (cellular G1 and S-phase) assay; type: cell-based
Method: The fraction of cells in G0-G1 DNA cell cycle versus the fraction in S-phase DNA cell cycle was determined using FlowJo 7.2.2 analysis.
The compounds listed in Table 1 were tested for their ability to arrest HS68 cells at the G1 phase of the cell cycle.

CDK2/CyclinE = target: T2, CDK2/CyclinE (Homo sapiens, UniProt P24941); assay: CDK2/cyclinE kinase assay (Nanosyn, Caliper microfluidic); type: biochemical; details: Table 2; for IC50: ATP 100 μM, read-out: CDK2/CycE IC50
T2 construct: Nanosyn (Santa Clara, Calif.) ran the assay as a service
Method: as §1, with “assays.” for “assays. Specifics of each assay are as described below:”

[2] = test system: MCF7 (breast adenocarcinoma—Rb-positive); assay: Cellular proliferation assay (CellTiter-Glo), MCF7; type: cell-based; details: Homo sapiens, MCF7, 144 h, six days
Method: (§2) Cellular proliferation assays were further conducted using the following cancer cell lines: MCF7 (breast adenocarcinoma—Rb-positive), ZR-75-1 (breast ductal carcinoma—Rb-positive), H69 (human small cell lung cancer—Rb-negative) cells, or A2058 (human metastatic melanoma cells—Rb-negative). These cells were seeded in Costar (Tewksbury, Mass.) 3093 96 well tissue culture treated white walled/clear bottom plates. Cells were treated with the compounds of Table 1 as nine point dose response dilution series from 10 uM to 1 nM. Cells were exposed to compounds and then cell viability was determined after either four (H69) or six (MCF7, ZR75-1, A2058) days as indicated using the CellTiter-Glo® luminescent cell viability assay (CTG; Promega, Madison, Wis., United States of America) following the manufacturer's recommendations. Plates were read on BioTek (Winooski, Vt.) Syngergy2 multi-mode plate reader. The Relative Light Units (RLU) were plotted as a result of variable molar concentration and data was analyzed using Graphpad (LaJolla, Calif.) Prism 5 statistical software to determine the EC50 for each compound.

[3] = test system: H69 (human small cell lung cancer—Rb-negative) cells; assay: Cellular proliferation assay (CellTiter-Glo), H69; type: cell-based; details: NCI-H69, 96 h, four days
Method: as §2

[4] = test system: A2058 (human metastatic melanoma cells—Rb-negative); assay: Cellular proliferation assay (CellTiter-Glo), A2058; type: cell-based; details: A2058, 144 h, six days
Method: as §2

CDK4/CyclinD1 = CDK4/CyclinD1 (Homo sapiens, UniProt P11802); assay: CDK4/cyclinD1 kinase assay (Nanosyn, Caliper microfluidic); type: biochemical; details: read-out: CDK4/CycD1 IC50
Method: as §1
CDK4/CyclinD1: Enzyme concentration: 1 nM; ATP concentration: 200 μM; Incubation time: 10 hr.

[5] = test system: ER+, HER2− locally advanced or metastatic breast cancer; details: post-menopausal women, at time of final PFS analysis; cited from earlier work
[6] = test system: Rb phosphorylation (Ser780, Ser807/811) in WM2664; assay: Rb phosphorylation western blot, WM2664; type: cell-based; details: WM2664, 300 nM, by 16 hours post exposure
Method: (§3) The CDK4/6-cyclin D complex is essential for progression from G1 to the S-phase of the DNA cell cycle. This complex phosphorylates the retinoblastoma tumor suppressor protein (Rb). […] Samples were lysed and protein was assayed by western blot analysis. Rb phosphorylation was measured at two sites targeted by the CDK4/6-cyclin D complex, Ser780 and Ser807/811 using species specific antibodies.

[7] = test system: Rb phosphorylation (Ser780, Ser807/811) in tHS68; assay: Rb phosphorylation western blot, tHS68; type: cell-based; details: tHS68, 300 nM, by 16 hours post exposure
Method: as §3

[8] = test system: 456 (395 non-mutant) kinases; assay: DiscoveRx KINOMEscan profiling; type: binding; details: 1000 nM
[9] = test system: bone marrow proliferating cells; assay: EdU incorporation in hematopoietic cells after i.p. dose; type: in vivo, C57BL/6 female mice; details: single i.p. dose 50 mg/kg or 100 mg/kg
Method: At the designated time: 30 min, 1 h, 2 h, 4 h, 6 h, 8 h, 12 h, 18 h, 24 h or 48 h, mice received an injection of 5′-ethynyl-2′-deoxyuridine (EdU). Two hours post EdU injection, mice were sacrificed. As illustrated in FIGS. 12-19, cell lines were isolated and incorporation of EdU was measured. Hematopoietic cell lineages were identified using known cell lineage markers. (See, for example, Challen, et al. “Mouse Hematopoietic Stem Cell Identification and Analysis”, Cytometry A. (2009) 75(1): 14-24).

[10] = test system: tHS68 (CDK4/6-dependent; Rb-positive); assay: Cell cycle arrest, propidium iodide flow cytometry, tHS68; type: cell-based; details: tHS68, 24 hours, highest concentration shown (28% at baseline)
From the text: To test the ability of CDK4/6 inhibitors to induce a clean G1-arrest in Rb-positive cells, a cell based screening method was used consisting of two CDK4/6-dependent cell lines (tHS68 and WM2664; Rb-positive) and one CDK4/6-independent (A2058; Rb-negative) cell line. […] At the conclusion of the experiment, cells were harvested, fixed, and stained with propidium iodide (a DNA intercalator), which fluoresces strongly red (emission maximum 637 nm) when excited by 488 nm light. Samples were run on Dako Cyan flow cytometer and >10,000 events were collected for each sample. Data were analyzed using FlowJo 2.2 software developed by TreeStar, Inc.

[11] = test system: ZR-75-1 (breast ductal carcinoma—Rb-positive); assay: Cellular proliferation assay (CellTiter-Glo), ZR-75-1; type: cell-based; details: Homo sapiens, ZR-75-1, 144 h, six days, read-out: ZR75-1 Cellular EC50
Method: as §2

[12] = Peripheral blood CBC on day 14 in MCF7 implant model; type: in vivo, Immunodeficient mice; details: Day 14, 100 mg/kg PO QD
From the text: Specific cell counts analyzed were white blood cells (WBC: FIG. 21A), lymphocytes (FIG. 21B), neutrophils (FIG. 21C), monocytes (FIG. 21D), platelets (FIG. 21E), and red blood cells (FIG. 21F).

Chain of CDK4/CyclinD1 (P11802 whole entry): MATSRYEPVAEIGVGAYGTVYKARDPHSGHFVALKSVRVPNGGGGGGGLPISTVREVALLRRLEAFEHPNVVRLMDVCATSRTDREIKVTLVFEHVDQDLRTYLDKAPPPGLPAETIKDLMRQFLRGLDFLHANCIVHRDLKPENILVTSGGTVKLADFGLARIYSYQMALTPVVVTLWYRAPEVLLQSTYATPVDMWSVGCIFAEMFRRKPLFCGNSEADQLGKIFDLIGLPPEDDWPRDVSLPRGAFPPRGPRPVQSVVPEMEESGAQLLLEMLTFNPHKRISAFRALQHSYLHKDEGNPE
Chain of CDK4/CyclinD1 (P24385 whole entry partner): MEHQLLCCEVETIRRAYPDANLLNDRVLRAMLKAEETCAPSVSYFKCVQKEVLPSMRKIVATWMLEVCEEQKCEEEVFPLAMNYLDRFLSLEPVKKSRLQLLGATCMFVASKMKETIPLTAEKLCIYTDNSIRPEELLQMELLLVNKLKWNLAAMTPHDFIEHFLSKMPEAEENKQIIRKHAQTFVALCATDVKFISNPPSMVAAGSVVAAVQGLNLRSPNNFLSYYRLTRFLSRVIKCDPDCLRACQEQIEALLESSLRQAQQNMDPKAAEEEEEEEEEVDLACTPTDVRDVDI

Q: What does the source list for CN1CCN(C(=O)c2ccc(Cc3ncc4cc5n(c4n3)C3(CCCC3)CNC5=O)nc2)CC1 [BBB]?
A: IC50 (CDK2/CyclinA): 0.085 µM; Fold Selectivity (CDK2/CycA/CDK4) (CDK2/CyclinA; ratio of IC50s): 31; EC50 [1]: 0.23 µM; IC50 (CDK2/CyclinE): 0.187 µM; Fold Selectivity (CDK2/CycE/CDK4) (CDK2/CyclinE; ratio of IC50s): 68; EC50 [2]: 0.123 µM; EC50 [3]: > 3 µM; EC50 [4]: > 3 µM; IC50 (CDK4/CyclinD1; Table 2, ATP at Km (200 μM)): 0.0028 µM

Q: With N#Cc1ccc(C(c2ccc(C#N)cc2)n2cncn2)cc1 [letrozole] as the compound, how does the “median OS” value [5] read?
A: 33.3 months

Q: Which IC50 (CDK4/CyclinD1; Table 2, ATP at Km (200 μM)) does the source give for CCN1[C@H](C)CN(c2ccc(Nc3ncc4cc5n(c4n3)C3(CCCCC3)CNC5=O)nc2)C[C@@H]1C [FF] here?
A: 0.0012 µM

Q: Which IC50 (CDK4/CyclinD1; Table 2, ATP at Km (200 μM)) does the source give for C[C@H]1CN(c2ccc(Nc3ncc4cc5n(c4n3)C3(CCCCC3)CNC5=O)nc2)CCN1CCC(C)(C)C [M] here?
A: 0.0023 µM

Q: Which “Rb phosphorylation” value [6] does the source give for CN1CCN(c2ccc(Nc3ncc4cc5n(c4n3)C3(CCCCC3)CNC5=O)nc2)CC1 [Compound T] here?
A: blocks Rb phosphorylation

Q: What about the “Rb phosphorylation” value [7] of the same compound?
A: blocks Rb phosphorylation

Q: What about the “number of 395 non-mutant kinases inhibited” value ([8]; inhibitory threshold of 65%) of the same compound?
A: 92

Q: And the “share of 395 non-mutant kinases inhibited” value ([8]; inhibitory threshold of 65%)?
A: 23.3%

Q: What about the “number of 395 non-mutant kinases inhibited” value ([8]; inhibitory threshold of 90%) of the same compound?
A: 31

Q: What about the “share of 395 non-mutant kinases inhibited” value ([8]; inhibitory threshold of 90%) of the same compound?
A: 7.8%

Q: What about the “number of 395 non-mutant kinases inhibited” value ([8]; inhibitory threshold of 99%) of the same compound?
A: 6

Q: And the “share of 395 non-mutant kinases inhibited” value ([8]; inhibitory threshold of 99%)?
A: 1.5%

Q: What about the “EdU incorporation, bone marrow” value [9] of the same compound?
A: dose and time dependent reduction and recovery of proliferating cells

Q: And the “cells in S-phase” value [10]?
A: 6%

Q: For CCOCCN1CCN(c2ccc(Nc3ncc4cc5n(c4n3)C3(CCCC3)CNC5=O)nc2)CC1 [MMM], which IC50 (CDK4/CyclinD1; Table 2, ATP at Km (200 μM)) is on record?
A: 0.0032 µM

Q: For O=C1NCC2(CCCC2)n2c1cc1cnc(Nc3ccc(N4CCC(N5CCOCC5)CC4)cn3)nc12 [WW], which EC50 [1] is on record?
A: 0.4 µM

Q: With CC1CN(c2ccc(Nc3ncc4cc5n(c4n3)C3(CCCCC3)CNC5=O)nc2)C[C@@H](C)N1CC1CC1 (stereo partly drawn) [OO] as the compound, how does the IC50 (CDK2/CyclinA) read?
A: 0.57 µM

Q: What about the EC50 [1] of the same compound?
A: 0.095 µM

Q: What about the IC50 (CDK2/CyclinE) of the same compound?
A: 3.98 µM

Q: And the EC50 [2]?
A: 0.12 µM

Q: And the EC50 [11]?
A: 0.229 µM

Q: What about the EC50 [3] of the same compound?
A: > 3 µM

Q: And the EC50 [4]?
A: > 3 µM

Q: What about the IC50 (CDK4/CyclinD1; Table 2, ATP at Km (200 μM)) of the same compound?
A: 0.009 µM

Q: For C[C@@H](O)CN1CCN(c2ccc(Nc3ncc4cc5n(c4n3)C3(CCCCC3)CNC5=O)nc2)CC1 [S], which IC50 (CDK4/CyclinD1; Table 2, ATP at Km (200 μM)) is on record?
A: 0.0017 µM

Q: With CCN(CC)C1CCN(c2ccc(Nc3ncc4cc5n(c4n3)C3(CCCCC3)CNC5=O)nc2)C1 (stereo not drawn) [QQ] as the compound, how does the EC50 [1] read?
A: 0.12 µM

Q: For CC1CN(c2ccc(Nc3ncc4cc5n(c4n3)C3(CCCC3)CNC5=O)nc2)CCN1CCC(C)(C)C (stereo not drawn) [PPP], which IC50 (CDK2/CyclinA) is on record?
A: 2.64 µM

Q: What about the IC50 (CDK2/CyclinE) of the same compound?
A: 16.5 µM

Q: What about the IC50 (CDK4/CyclinD1; Table 2, ATP at Km (200 μM)) of the same compound?
A: 0.0008 µM

Q: With C[C@@H]1CN(c2ccc(Nc3ncc4cc5n(c4n3)C3(CCCCC3)CNC5=O)nc2)CCN1C[C@@H](C)O [J] as the compound, how does the IC50 (CDK4/CyclinD1; Table 2, ATP at Km (200 μM)) read?
A: 0.0007 µM

Q: Which results are given for CC(C)N1CCN(c2ccc(Nc3ncc4cc5n(c4n3)C3(CCCCC3)CNC5=O)nc2)CC1 [Compound GG]?
A: lymphocyte count [12]: reduced cell counts; neutrophil count [12]: reduced cell counts; platelet count [12]: reduced cell counts; red blood cell count [12]: reduced cell counts; white blood cell count [12]: reduced cell counts; IC50 (CDK4/CyclinD1; Table 3): 0.00106 µM; IC50 (CDK4/CyclinD1): 0.001 µM

Q: With CCN(CC)C1CCN(c2ccc(Nc3ncc4cc5n(c4n3)C3(CCCC3)CNC5=O)nc2)C1 (stereo not drawn) [UU] as the compound, how does the EC50 [1] read?
A: 0.3 µM

Q: Which IC50 (CDK4/CyclinD1; Table 2, ATP at Km (200 μM)) does the source give for CC(C)N1CCN(c2ccc(Nc3ncc4cc5n(c4n3)C3(CCCCC3)CNC5=O)nc2)C[C@H]1C [L] here?
A: 0.0057 µM

Q: With CC(C)[C@H]1CNC(=O)c2cc3cnc(Nc4ccc(N5CCNCC5)cn4)nc3n21 [UUU] as the compound, how does the IC50 (CDK4/CyclinD1; Table 2, ATP at Km (200 μM)) read?
A: 0.018 µM
